According to BindingDB's records for PubMed 40104800 (Jinan University):

Target: Eukaryotic elongation factor 2 kinase (mouse)
Test: Inhibition of eEF2K in mouse HT-22 cells preincubated for 20 mins followed by [33P]-ATP addition measured after 120 mins by radiometric Hotspot kinase assay

- IC50: 136 µM
Compound: C=C(c1[nH]c2ccccc2c1CN1C/C(=C/C)[C@@H]2CC(=O)c3[nH]c4ccccc4c3C[C@H]1C2C(=O)OC)[C@H]1CCN(C)C/C1=C\C (stereo partly specified)
